According to patent US20090253157A1, “METHOD OF DIRECTED DIFFERENTIATION OF PORCINE EMBRYONIC STEM CELLS AND USING THE SAID CELLS IN DRUG SCREENING” (Livestock Research Institute, Council of Agriculture, …, priority 2008, published 2009):
Values joined by “and” are separate entries in the source; they are usually repeats but may differ in a detail not shown here. Equal entries are not always repeated. Marks after values point to notes of the source that are not given here.

System: pES cells of the M215-3 strain
Experiment: Directed neural differentiation of pES cells (two-stage induction), immunocytochemical staining for neural biomarkers
Type: cell-based, porcine
Experimental: The pES cells of the M215-3 strain derived from the pre-implantation blastocysts of Taiwan Livestock Research Institute Black Pig No. 1 (a topcrossing breed established from Taoyuan and Duroc pigs) were maintained in ES-cell culture medium (ESM) consisting of Dulbecco's modified eagle medium (DMEM, high glucose and no pyruvate, Invitrogen, Grand Island, N.Y., USA) supplemented with 1 mM L-glutamine (Sigma-Aldrich, St. Louis, Mo., USA), 0.1 mM β-2-mercaptoethanol (Sigma-Aldrich), […] MEM non-essential amino acids (Sigma-Aldrich), 0.03 mM adenosine (Sigma-Aldrich), 0.03 mM guanosine (Sigma-Aldrich), 0.03 mM cytidine (Sigma-Aldrich), 0.03 mM uridine (Sigma-Aldrich), 0.01 mM thymidine (Sigma-Aldrich), antibiotics (50 units/ml penicillin G and 50 μg/ml streptomycin sulfate, Invitrogen) and 16% fetal bovine serum (FBS, Invitrogen) as described previously (Chen et al., 1991, J. Chin. Soc. Anim. Sci. 20: 326-339). Briefly, the pluripotent pES cells were propagated on a feeder layer of mitomycin C (Sigma-Aldrich) inactivated STO cells (mouse embryonic fibroblasts, CRL-1503, USA) in gelatin-coated Multidish 4 Wells® (Nunc 176740, Roskilde, Denmark) in ESM at 39° C. with an atmosphere of 5% CO2 in air. For the maintenance of undifferentiation, pES colonies were regulatory subcultured with 0.25% trypsin-0.02 mM EDTA (Invitrogen) and re-plated onto fresh STO feeder layers every 5 to 7 days.
Confluent pES cells were trypsinized and subjected to a two-stage in vitro induction protocol for neural differentiation. They were firstly taken into a suspension culture in an Easy Flask® (NUNC 169900, Roskilde, Denmark) for a 12-day period of neural induction. Neural induction is initiated by plating undifferentiated pES cells as single-cell suspension at a number of 1×10^5 cells totally in ESM medium withdrawing FBS and containing 1 μM retinoic acid (RA, Sigma-Aldrich), 200 ng/ml sonic hedgehog (SHH, R&D systems, Minneapolis, Minn., USA) and 100 ng/ml fibroblast growth factor (FGF, Sigma-Aldrich) as described by Barberi et al. (Nat. Biotechnol. 2003. 21: 1200-1207). Five combined treatments of neurogenic stimulators for neural induction were applied: (1) RA, (2) RA+SHH, (3) RA+FGF, (4) SHH+FGF, (5) RA+SHH+FGF. After 12 days of induction, the pES cell-derived neural cells were plated onto gelatin-coated 4-well dishes in high-density (2×10^4 cells/ml) or low-density (5×10^3 cells/ml). These cells were then cultured in DMEM/F12 medium (Sigma-Aldrich) supplemented with 10% FBS, 20 ng/ml human recombinant epidermal growth factor (hrEGF, Invitrogen), 20 ng/ml human recombinant basic fibroblast growth factor (hrbFGF, Invitrogen), and 1:100 N2 (Invitrogen), and allowed for the propagation of neural precursor cells (Pan et al., 2005 Biochem. Biophys. Res. Commun. 327: 548-556). After plating onto the 4-well dish, the induced pES cells were treated with trypsin/EDTA and collected at days 2, 4, 6, 8, 10, and 12, respectively, to analyze the neural-related development by immunocytochemical staining.
Cells for immunocytochemical analysis were fixed in 10% formalin at room temperature for 30 minutes. The cells were washed with phosphate buffered saline (PBS, Sigma-Aldrich), then incubated with 0.3% Triton X-100 (Sigma-Aldrich) for 10 minutes, 3% H2O2 (Sigma-Aldrich) for 5 minutes and incubated in blocking buffer (5% FBS) at room temperature for 2 hours. After being washed with PBS, the cells were incubated overnight with appropriate dilution of primary antibody, or combination of antibodies at 4° C. (Li et al., 2005 Nat. Biotechnol. 2005. 23: 215-221). Subsequently, cells were incubated with secondary antibody of Fluorescein (FITC)-conjugated AffiniPure Goat Anti-Rabbit IgG, Goat Anti-Mouse IgG, IgM (1:200, Jackson Immunoresearch Laboratories, West Baltimore Pike, Pa., USA) for a minimum of 2 hours, followed by washing in PBS. […]

[1] = day 6 after the treatments, mean±S.D.

CC1=C(/C=C/C(C)=C/C=C/C(C)=C/C(=O)O)C(C)(C)CCC1 [RA, retinoic acid]
percentage of pES cell-derived neural lineages expressing nestin (D2 after replating, 12-day induction, 1 μM RA, 200 ng/ml SHH, 100 ng/ml FGF, mean±S.D.): 86.2 ± 7.9^ab % | percentage of pES cell-derived neural lineages expressing A2B5 (D2 after replating, mean±S.D.): 83.7 ± 12.6% | percentage of pES cell-derived neural lineages expressing ChAT (D2 after replating, mean±S.D.): 87.1 ± 5.6^ab % | percentage of pES cell-derived neural lineages expressing GFAP (D2 after replating, mean±S.D.): 9.8 ± 3.8% | percentage of pES cell-derived neural lineages expressing NFL (D2 after replating, mean±S.D.): 93.9 ± 3.9^a % | percentage of pES cell-derived neural lineages expressing TH (D2 after replating, mean±S.D.): 7.8 ± 2.5% | percentage of pES cell-derived neural lineages expressing A2B5 (D4 after replating, mean±S.D.): 86.6 ± 3.3% | percentage of pES cell-derived neural lineages expressing ChAT (D4 after replating, mean±S.D.): 85.8 ± 3.2^bc % | percentage of pES cell-derived neural lineages expressing GFAP (D4 after replating, mean±S.D.): 7.6 ± 4.2% | percentage of pES cell-derived neural lineages expressing NFL (D4 after replating, mean±S.D.): 90.3 ± 4.8^ab % | percentage of pES cell-derived neural lineages expressing TH (D4 after replating, mean±S.D.): 8.0 ± 4.9% | percentage of pES cell-derived neural lineages expressing nestin (D4 after replating, mean±S.D.): 90.5 ± 4.7^a % | percentage of pES cell-derived neural lineages expressing A2B5 (D6 after replating, mean±S.D.): 87.6 ± 7.4% and 87.6 ± 7.4^a % | percentage of pES cell-derived neural lineages expressing ChAT (D6 after replating, mean±S.D.): 91.8 ± 8.3^a % | percentage of pES cell-derived neural lineages expressing GFAP (D6 after replating, mean±S.D.): 7.7±3.6% and 7.7 ± 3.6^d % | percentage of pES cell-derived neural lineages expressing NFL (D6 after replating, mean±S.D.): 91.8 ± 6.0^a % | percentage of pES cell-derived neural lineages expressing TH (D6 after replating, mean±S.D.): 8.7±1.7% and 8.7 ± 1.7^b % | percentage of pES cell-derived neural lineages expressing A2B5 (D8 after replating, mean±S.D.): 86.9 ± 9.3% | percentage of pES cell-derived neural lineages expressing ChAT (D8 after replating, mean±S.D.): 86.9 ± 4.4^ab % | percentage of pES cell-derived neural lineages expressing GFAP (D8 after replating, mean±S.D.): 7.3 ± 1.5% | percentage of pES cell-derived neural lineages expressing NFL (D8 after replating, mean±S.D.): 85.8 ± 4.2^b % | percentage of pES cell-derived neural lineages expressing TH (D8 after replating, mean±S.D.): 8.5 ± 2.7% | percentage of pES cell-derived neural lineages expressing nestin (D8 after replating, mean±S.D.): 81.2 ± 8.0^bc % | percentage of pES cell-derived neural lineages expressing A2B5 (D10 after replating, mean±S.D.): 86.3 ± 1.9% | percentage of pES cell-derived neural lineages expressing ChAT (D10 after replating, mean±S.D.): 89.9 ± 7.2^ab % | percentage of pES cell-derived neural lineages expressing GFAP (D10 after replating, mean±S.D.): 7.7 ± 4.5% | percentage of pES cell-derived neural lineages expressing NFL (D10 after replating, mean±S.D.): 84.4 ± 7.7^b % | percentage of pES cell-derived neural lineages expressing TH (D10 after replating, mean±S.D.): 8.5 ± 4.2% | percentage of pES cell-derived neural lineages expressing nestin (D10 after replating, mean±S.D.): 82.4 ± 11.4^bc % | percentage of pES cell-derived neural lineages expressing A2B5 (D12 after replating, mean±S.D.): 84.8 ± 5.2% | percentage of pES cell-derived neural lineages expressing ChAT (D12 after replating, mean±S.D.): 80.3 ± 6.0^c % | percentage of pES cell-derived neural lineages expressing GFAP (D12 after replating, mean±S.D.): 7.6 ± 2.3% | percentage of pES cell-derived neural lineages expressing NFL (D12 after replating, mean±S.D.): 74.4 ± 12.3^c % | percentage of pES cell-derived neural lineages expressing TH (D12 after replating, mean±S.D.): 8.4 ± 3.5% | percentage of pES cell-derived neural lineages expressing nestin (D12 after replating, mean±S.D.): 77.9 ± 6.6^c % | percentage of pES cell-derived neural lineages expressing CNPase [1]: 89.8 ± 4.7^ab % | percentage of pES cell-derived neural lineages expressing GABA [1]: 80.5±9.2% and 80.5 ± 9.2^a % | percentage of pES cell-derived neural lineages expressing MAP2 [1]: 86.1 ± 3.2^a % | percentage of pES cell-derived neural lineages expressing O4 [1]: 90.7 ± 5.9% | percentage of pES cell-derived neural lineages expressing S100 [1]: 71.4 ± 12.5^a % | percentage of differentiated cells GFAP positive (during the 12-day post-treatment period (Table 3)): Less than 10% | percentage of cells expressing TH (during the culture, day 2 to day 12 (text summary of Table 5)): below 10% | ratio of cells expressing A2B5 (during the following culture, day 2 to day 12 (text summary of Table 4)): above 80%
